# According to patent US11319299B2, “Substituted carboxamides as inhibitors of WDR5 protein-protein binding” (PROPELLON THERAPEUTICS INC., priority 2016, dated 2022):
# Target: WDR5 (Homo sapiens (Human), UniProt P61964)
# Test: Surface Plasmon Resonance (SPR) assay, KD and residence time
# Format: binding
# Conditions: surface plasmon resonance (SPR); read-out: WDR5 binding affinity (KD)
row,Compound,Kd [nM]
1,"C[C@@H]1CN(c2cc(F)c(C3=CCN(C(=O)N4CCCC4)C3)cc2NC(=O)c2c[nH]c(=O)cc2C(F)(F)F)C[C@H](C)N1C [Example 441, N-[4-fluoro-5-[1-(pyrrolidine-1-carbonyl)-2,5-dihydropyrrol-3-yl]-2-[(3R,5S)-3,4,5-trimethylpiperazin-1-yl]phenyl]-6-oxo-4-(trifluoromethyl)-1H-pyridine-3-carboxamide]",1.91
2,"C[C@@H]1CN(c2cc(F)c(C3=CCN(C(=O)c4cnccn4)C3)cc2NC(=O)c2c[nH]c(=O)cc2C(F)(F)F)C[C@H](C)N1C [Example 442, N-[4-fluoro-5-[1-(pyrazine-2-carbonyl)-2,5-dihydropyrrol-3-yl]-2-[(3R,5S)-3,4,5-trimethylpiperazin-1-yl]phenyl]-6-oxo-4-(trifluoromethyl)-1H-pyridine-3-carboxamide]",3.67
3,"CC(C)COC(=O)N1CC=C(c2cc(NC(=O)c3c[nH]c(=O)cc3C(F)(F)F)c(N3C[C@@H](C)N(C)[C@@H](C)C3)cc2F)C1 [Example 443, 2-methylpropyl 3-[2-fluoro-5-[[6-oxo-4-(trifluoromethyl)-1H-pyridine-3-carbonyl]amino]-4-[(3R,5S)-3,4,5-trimethylpiperazin-1-yl]phenyl]-2,5-dihydropyrrole-1-carboxylate]",2.37
4,"C[C@@H]1CN(c2cc(F)c(C3=CCN(c4ncc(C=O)cn4)C3)cc2NC(=O)c2c[nH]c(=O)cc2C(F)(F)F)C[C@H](C)N1C [Example 444, N-[4-fluoro-5-[1-(5-formylpyrimidin-2-yl)-2,5-dihydropyrrol-3-yl]-2-[(3R,5S)-3,4,5-trimethylpiperazin-1-yl]phenyl]-6-oxo-4-(trifluoromethyl)-1H-pyridine-3-carboxamide]",2.96
5,"C[C@@H]1CN(c2cc(F)c(-c3cnn(C)c3)cc2NC(=O)c2c[nH]c(=O)cc2C(F)(F)F)C[C@H](C)N1C [Example 445, N-[4-fluoro-5-(1-methylpyrazol-4-yl)-2-[(3R,5S)-3,4,5-trimethylpiperazin-1-yl]phenyl]-6-oxo-4-(trifluoromethyl)-1H-pyridine-3-carboxamide]",1.95
6,"C[C@@H]1CN(c2cc(F)c(-c3nc(C#N)cs3)cc2NC(=O)c2c[nH]c(=O)cc2C(F)(F)F)C[C@H](C)N1C [Example 446, N-[5-(4-cyano-1,3-thiazol-2-yl)-4-fluoro-2-[(3R,5S)-3,4,5-trimethylpiperazin-1-yl]phenyl]-6-oxo-4-(trifluoromethyl)-1H-pyridine-3-carboxamide]",2.94
7,"C[C@@H]1CN(c2cc(F)c(-c3ncc(C#N)s3)cc2NC(=O)c2c[nH]c(=O)cc2C(F)(F)F)C[C@H](C)N1C [Example 447, N-[5-(5-cyano-1,3-thiazol-2-yl)-4-fluoro-2-[(3R,5S)-3,4,5-trimethylpiperazin-1-yl]phenyl]-6-oxo-4-(trifluoromethyl)-1H-pyridine-3-carboxamide]",2.88
8,"C[C@@H]1CN(c2cc(F)c(-c3ccc(N4CCOCC4)c(F)c3)cc2NC(=O)c2cn(C)c(=O)cc2C(F)F)C[C@H](C)N1C [Example 449, 4-(difluoromethyl)-N-[4-fluoro-5-(3-fluoro-4-morpholin-4-ylphenyl)-2-[(3R,5S)-3,4,5-trimethylpiperazin-1-yl]phenyl]-1-methyl-6-oxopyridine-3-carboxamide]",9.03

# Results, then the compound that gave them:
row,Kd [nM],Compound
1,4.05,"C[C@@H]1CN(c2cc(F)c(-c3cnc(N4CCN(C5CC5)CC4)nc3)cc2NC(=O)c2ccc(F)cc2C(F)(F)F)C[C@H](C)N1C [Example 454, N-[5-[2-(4-cyclopropylpiperazin-1-yl)pyrimidin-5-yl]-4-fluoro-2-[(3R,5S)-3,4,5-trimethylpiperazin-1-yl]phenyl]-4-fluoro-2-(trifluoromethyl)benzamide]"
2,2.57,"C[C@@H]1CN(c2cc(F)c(C3=CCN(c4ncc(CN(C)C)cn4)C3)cc2NC(=O)c2c[nH]c(=O)cc2C(F)(F)F)C[C@H](C)N1C [Example 457, N-[5-[1-[5-[(dimethylamino)methyl]pyrimidin-2-yl]-2,5-dihydropyrrol-3-yl]-4-fluoro-2-[(3R,5S)-3,4,5-trimethylpiperazin-1-yl]phenyl]-6-oxo-4-(trifluoromethyl)-1H-pyridine-3-carboxamide]"
3,0.474,"C[C@@H]1CN(c2cc(F)c(C3=CCN(c4ncc(CN5CCOCC5)cn4)C3)cc2NC(=O)c2c[nH]c(=O)cc2C(F)(F)F)C[C@H](C)N1C [Example 458, N-[4-fluoro-5-[1-[5-(morpholin-4-ylmethyl)pyrimidin-2-yl]-2,5-dihydropyrrol-3-yl]-2-[(3R,5S)-3,4,5-trimethylpiperazin-1-yl]phenyl]-6-oxo-4-(trifluoromethyl)-1H-pyridine-3-carboxamide]"
4,4.93,"C[C@@H]1CN(c2ncc(-c3cc(NC(=O)c4cn(C)c(=O)cc4C(F)F)c(N4C[C@@H](C)N(C)[C@@H](C)C4)cc3F)cn2)CCO1 [Example 461, 4-(difluoromethyl)-N-[4-fluoro-5-[2-[(2R)-2-methylmorpholin-4-yl]pyrimidin-5-yl]-2-[(3R,5S)-3,4,5-trimethylpiperazin-1-yl]phenyl]-1-methyl-6-oxopyridine-3-carboxamide]"
5,2.28,"CC(C)N1CCN(c2ncc(-c3cc(NC(=O)c4ccc(F)cc4C(F)(F)F)c(N4C[C@@H](C)N(C)[C@@H](C)C4)cc3F)cn2)CC1 [Example 466, 4-fluoro-N-[4-fluoro-5-[2-(4-propan-2-ylpiperazin-1-yl)pyrimidin-5-yl]-2-[(3R,5S)-3,4,5-trimethylpiperazin-1-yl]phenyl]-2-(trifluoromethyl)benzamide]"
6,2.28,"C[C@@H]1COCCN1c1ncc(-c2cc(NC(=O)c3c[nH]c(=O)cc3C(F)(F)F)c(N3CCN(C)[C@@H](C)C3)cc2F)cn1 [Example 468, N-[4-fluoro-2-[(3S)-3,4-dimethylpiperazin-1-yl]-5-[2-[(3R)-3-methylmorpholin-4-yl]pyrimidin-5-yl]phenyl]-6-oxo-4-(trifluoromethyl)-1H-pyridine-3-carboxamide]"
7,5.64,"C[C@@H]1COCCN1c1ncc(-c2cc(NC(=O)c3c[nH]c(=O)cc3C(F)(F)F)c(N3C[C@@H](C)N(C)[C@@H](C)C3)cc2F)cn1 [Example 469, N-[4-fluoro-5-[2-[(3R)-3-methylmorpholin-4-yl]pyrimidin-5-yl]-2-[(3R,5S)-3,4,5-trimethylpiperazin-1-yl]phenyl]-6-oxo-4-(trifluoromethyl)-1H-pyridine-3-carboxamide]"
8,3.54,"C[C@@H]1CN(c2cc(F)c(-c3cnc(N4CCOCC4)nc3)cc2NC(=O)c2c[nH]c(=O)cc2C(F)(F)F)C[C@H](C)[N+]1(C)C [Example 479, N-[4-fluoro-5-(2-morpholin-4-ylpyrimidin-5-yl)-2-[(3R,5S)-3,4,4,5-tetramethylpiperazin-4-ium-1-yl]phenyl]-6-oxo-4-(trifluoromethyl)-1H-pyridine-3-carboxamide]"
9,1.75,"C[C@@H]1CN(c2cc(F)c(-c3nc(C(=O)NCC4CC4)cs3)cc2NC(=O)c2c[nH]c(=O)cc2C(F)(F)F)C[C@H](C)N1C [Example 482, N-(cyclopropylmethyl)-2-[2-fluoro-5-[[6-oxo-4-(trifluoromethyl)-1H-pyridine-3-carbonyl]amino]-4-[(3R,5S)-3,4,5-trimethylpiperazin-1-yl]phenyl]-1,3-thiazole-4-carboxamide]"
